The values below come from US8895522B2, “Composition and method for the prevention, treatment and/or alleviation of an inflammatory disease” (Index Pharmaceuticals AB, priority 2005, dated 2014).

Entries after “also recorded” stand apart in the source; their conditions may differ. In the oligonucleotide strings, read from the 5' end, every base follows the letter of its sugar. An asterisk marks phosphorothioate; unmarked linkages are phosphodiester. Other units and linkages are bracketed, terminal groups are in braces. A string of capitals states the bases alone. d = 2'-deoxy (DNA)

What all share (assay type): cell-based
Series [1] relates to human PBMC. The series is described as follows: Induction of IL-10 from healthy human PBMC (ELISpot). Particulars: PBMC from 5 healthy individuals, 48 hours. The method, then: Whole blood was obtained from healthy blood donors. PBMCs were prepared from 30 ml whole blood according to the following protocol:
30 ml blood was transferred directly into heparinized tubes. All blood was transferred into one 50 ml Falcon tube and PBS added up to 50 ml. 15 ml Ficoll (17-1440-03, obtained from Amersham Bioscience AB, Uppsala) was then added into two falcon tubes (50 ml). The PBS-treated blood was then carefully added on the top of to Ficoll, 25 ml to each tube. The tubes were then centrifuged 25 min at 1700 RPM at RT (20° C.).
RPMIc medium was prepared under sterile conditions, using a 0.22 uM filter. (RPMIc denotes a RPMI 1640 culture medium (R0883, Sigma) supplemented with 5% heat-inactivated (56° C.,1 h) FCS 1.5 mM L-glutamine (G7513, Sigma), 100 U/ml penicillin and 100 ug/ml streptomycin, PEST (P0781, Sigma), hepes (H0887, Sigma), and gentamycin (G1272, Sigma)).
The interphase was carefully pipetted from the two tubes into 2x 50mi Falcon tubes. PBS was added up to 50 ml in each tube, and the tubes centrifuged for 10 min at 1700 RPM (4° C.).
The supernatant was discarded, and PBS added to 30 ml, whereupon the tubes were centrifuged at 10 min at 1500 RPM (4° C.). Again, the supernatant was discarded, 10 ml PBS added, and the pellets from the two falcon tubes pooled.
The cells were counted and left in PBS, then centrifuged at 1200 RPM, 10 min. Medium was then added to obtain the concentration of interest, and the cells counted (16 squares)×3. The mean value was calculated and multiplied with the dilution factor×10^4=cells/ml. Diluting the cells to 10 million/ml will result in 500.000 cells/50 ul medium, 6 million/ml will be 300.000/50 ul medium.
Elispot assays where performed according to the manufactures recommended guidelines (MabTech) and the plates were analyzed using an AID ELISpot reader system (Autoimmun Diagnostika GmbH, Strassberg, Germany).
Approximately 500,000 PBMC cells per well, derived from blood from healthy human donors, were incubated for 48 hours in the presence of the different oligonucleotides. Specifically, SEQ.ID.NO 1, SEQ.ID.NO 2, SEQ.ID.NO 6 and SEQ.ID.NO 8. Following incubation, the wells were developed according to the kit supplier's recommendations and the average number of positive cells producing IL-10 per well were counted using an AID ELISpot reader system, (Autoimmun Diagnostika GmbH, Strassberg, Germany).

The subject of series [2] is human PBMC. Briefly: IL-10 induction from healthy human PBMC by SEQ.ID.NO 1 after dexamethasone pre-incubation (ELISA). The procedure: ELISA assays where performed according to the manufactures recommended guidelines (R&D systems). Plates were analyzed using AID ELISpot reader system (Autoimmun Diagnostika GmbH, Strassberg Germany).
For this assay again 500,000 PBMC cells per well, derived from blood from healthy human donors, were incubated for 12 hours in the presence of various concentrations of dexamethasone, after which, the cells were washed and fresh medium as added. The cells were then allowed to further incubate in the presence of either 25 uM or 100 uM of SEQ.ID.NO 1 for an additional 24 hours after which levels of IL-10 were measured using a commercial available IL-10 ELISA kit.
For orientation: An ELISA detects its analyte on a solid surface through an enzyme-linked reagent.

Series [3] deals with human PBMC from steroid resistant asthmatics or healthy donors. The series is described as follows: Cytokine production in PBMC from steroid resistant asthmatics or healthy donors (Cytometric Bead Array). Conditions: 25 μM or 100 μM, 48 hours, CBA. The method, then:
Blood samples were obtained from healthy volunteers or steroid resistant asthmatics. PBMC were isolated by density gradient centrifugation using Ficoll-Paque Plus (Pharmacia Biotech, Uppsala, Sweden), washed three times in buffered saline solution (PBS), and re-suspended in RPMI 1640 (Sigma) containing 10% heat inactivated fetal calf serum (FCS) (Life Technologies), 100 U/mL penicillin 100 μg/mL streptomycin (Life Technologies), 2 mM L-glutamine (Sigma), gentamycin (Sigma) and 5 mM Hepes (Gibco, Life Technologies). Cells were counted using 0.4% Trypan blue solution (Sigma Aldrich)
PBMC, prepared as previously described were, directly after seeding, stimulated with SEQ.ID.NO. 1. (25 μM and 100 μM) in the presence or absence of Dex (10^−6, 10^−8 and 10^−10 M) into a 96-well flat bottomed cell culture plate at 500 000 cells/well in RPMIc. As control ODN, 1 μM of IDX0910 was used. After treatment, cells were incubated in a humified incubator at 5% carbon dioxide and 37° C. for 48 hrs. Supernatants were saved and stored at −20° C. prior to cytokine level determination.
The supernatants were kept at −20° C. until analyzed. IFN-, IL-6, IL-10, IL-2, IL-4 and TNF-alpha were measured utilizing the Cytometric Bead Array (CBA) from Becton Dickenson (BD), according to the manufacturer's protocol. The lower detection limit was 20 pg/ml for each cytokine. The FACSCalibur was used for all CBA analysis for this study.
PBMCs were incubated in medium (basal) or with 25 μM (hatched bars) or 100 μM (dotted bars) of the CpG containing SEQ.ID.NO.1 for 48 hours before detection of IL-6 in supernatant. Each bar of the histogram represents average amount of IL-6 production from 9 healthy donors and 9 steroid resistant asthmatics. Experiments were performed in triplicate for each blood donor. Background levels of IL-6 (medium) were subtracted from each group of samples.

Regarding “5′-G*G*A*ACAGTTCGTCCAT*G*G*C-3′ (DNA dG*dG*dA*dAdCdAdGdTdTdCdGdTdCdCdAdT*dG*dG*dC) [SEQ.ID.NO 1, (Hu p65)AS, CpG-containing ODN; * marks phosphorothioate linkage, others phosphodiester]”, the “concentration from which IL-10 producing cells are induced” value in series [1] is recorded as “around 5 uM”. Also, the “induction of IL-10 producing cells” value in series [1] (FIG. 11) is “clear potential to induce IL-10 producing cells”. For the same substance, the IL-10 production result is recorded as “little production of IL-10” in series [2] (25 uM SEQ.ID.NO 1 for 24 hours after 12 hours prior incubation with dexamethasone) and “dramatic increase in the amount of IL-10 produced; also recorded: levels higher than either mono treatment alone” in series [2] (100 uM SEQ.ID.NO 1 for 24 hours after 12 hours prior incubation with dexamethasone (most apparent at 10^−10 M)). Also, the “IL-6 induced, steroid resistant PBMCs compared to healthy PBMCs” value in series [3] (9 healthy donors and 9 steroid resistant asthmatics) is given as “significantly lower”. Also, the “IL-10 induced, steroid resistant PBMCs compared to healthy PBMCs” value in series [3] is reported as “significantly lower”. Also, the “interferon-gamma induced, steroid resistant PBMCs compared to healthy PBMCs” value in series [3] is listed as “significantly lower”.
